The values that follow come from patent US20040198716A1, “Cysteine protease inhimbitors” (priority 2001, published 2004).

Assay [1] has as its target T1, human recombinant caspase-3 (Homo sapiens, UniProt P42574).
T1 construct: purchased Sigma
T1 sequence (P42574 29-175 limits assumed): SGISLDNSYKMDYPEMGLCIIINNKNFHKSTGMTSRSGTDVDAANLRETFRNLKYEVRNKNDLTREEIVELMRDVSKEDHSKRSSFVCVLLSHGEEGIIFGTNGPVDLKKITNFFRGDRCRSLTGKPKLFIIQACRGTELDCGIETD
T1 sequence (P42574 176-277 limits assumed): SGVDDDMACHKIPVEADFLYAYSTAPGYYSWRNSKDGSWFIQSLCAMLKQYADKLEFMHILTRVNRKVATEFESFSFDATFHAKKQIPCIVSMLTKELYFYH
Nature of the assay: In vitro high throughput caspase-3 assay. The following applies: for Percent Activity: percentage of the positive control, 20-250 μM test compound, lower = better inhibition, negative = better than control caspase inhibitor; for Ki: calculated from IC50 according to Equation 1, read-out: Ki(app); for IC50: fixed substrate concentration of 55 μM, inhibitors 75 to 0.067 μM in duplicate. The class given is biochemical. The procedure: Purified Human recombinant caspase-3, fluorescence labeled substrate (Acetyl-Asp-Glu-Val-Asp-7-amino-4-trifluoromethyl coumarin), and known inhibitor (Z-Asp-Glu-Val-Asp-fluoromethyl ketone) can be purchased from Sigma Chemical Co. (St. Louis, Mo.). The enzyme reactions are carried out at room temperature in 10 mM PIPES pH=7.4, 2 mM EDTA, 0.1% CHAPS, 5 mM DTT reaction buffer. Each well on the 96 well plate contains the above reaction buffer plus 55 μM fluorescence labeled substrate, 0.125 μg caspase-3, and 20-250 μM test compound. Positive and negative controls are present on each assay plate. A standard curve is generated using 7-amino-4-trifluoromethyl coumarin in the concentration range from 0.15 μM to 5.0 μM. The reactions are preferably read every 0.5 hours using a fluorescence microtiter plate reader set for 390 nm excitation and 538 nm emission for the first 4 hours after which the plates are left at room temperature overnight. One reading is taken the next morning as a final measurement.
To determine the caspase inhibitory activity of these compounds, the in vitro high throughput caspase-3 assay presented herein was utilized. Purified human recombinant caspase-3, fluorescence labeled substrate (Acetyl-Asp-Glu-Val-Asp-7-amino-4-trifluoromethyl coumarin), and known inhibitor (Z-Asp-Glu-Val-Asp-fluoromethyl ketone) were purchased from Sigma. The enzyme reactions were carried out at room temperature in 10 mM PIPES pH=7.4, 2 mM EDTA, 0.1% CHAPS, 5 mM DTT reaction buffer. Each well on the 96 well plate contained the above reaction buffer plus 55 μM fluorescence labeled substrate, 0.125 μg caspase-3, and 20-250 μM test compound. Positive and negative controls were present on each assay plate. A standard curve was generated using 7-amino-4-trifluoromethyl coumarin in the concentration range from 0.15 μM to 5.0 μM. The reactions were read every 0.5 hours using a fluorescence microtiter plate reader set for 390 nm excitation and 538 nm emission for the first 4 hours after which the plates were left at room temperature overnight. One reading was taken the next morning as a final measurement.
Ki determinations were carried out using the above assay system. […] Ki(app) was calculated according to Equation 1: [formula]
The concentration of inhibitors ranged from 75 to 0.067 μM with each inhibitor concentration assayed in duplicate. The Km for the substrate was determined from a standard Lineweaver-Burke plot.

The target of assay [2] is T2, Human Rhinovirus serotype 1A 3C Protease (Human rhinovirus 1A, UniProt P23008).
T2 construct: used to clone the 3C Protease into the expression vector pET16-b; made in house; host or cells: E. coli BL21-DE3-pLys-S
Nature of the assay: 3C Protease Biochemical Assay (FRET). Conditions: 30° C., 2-6uM substrate, 416 nM 3CP. Here is the method: Human Rhinovirus serotype 1A (ATCC) was used to clone the 3C Protease into the expression vector pET16-b and transformed for production into the E. coli strain BL21-DE3-pLys-S. 3C Protease expression was induced with 1 mM IPTG at 25° C. and purified from the soluble protein extract by chromatography on a SourceQ (Pharmacia) followed by gel filtration. HRV 3CP activity was measured by fluorescence resonance energy transfer using a dimodified decapeptide substrate MOC-[…]DNP-NH2 (7-methoxy coumarin-4-acetic acid fluorochrome and dinitrophenol quencher) with a Km value of 16.8 μM. Inhibition was measured as a change in initial velocity (V0) as a function of inhibitor (I) concentration and substrate (S) concentration. […] Fluorescence was monitored by excitation at 328 nm and emission at 393 nm with 10 nm cutoffs. Data were analyzed with the nonlinear regression analysis program EnzFitter (BioSoft) with the equation:
Ki=(I/((VmaxxS)/V0)/Ks)−I−S
Substrate concentrations used were lower than the Km of the substrate (16.8 uM) so no corrections for an S/Km term were used.

The structures appear in SMILES notation.

T2 sequence (P23008 1515-1697): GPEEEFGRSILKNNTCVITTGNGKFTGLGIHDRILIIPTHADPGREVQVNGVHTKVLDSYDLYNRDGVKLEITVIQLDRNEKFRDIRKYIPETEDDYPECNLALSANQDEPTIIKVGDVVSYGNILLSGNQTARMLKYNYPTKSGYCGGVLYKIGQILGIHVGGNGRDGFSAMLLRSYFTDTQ

`CNc1cc(Nc2ccccc2)c2c3c(onc13)-c1ccccc1C2=O` [cpi0156.0051]: the “Percent Activity” value in assay [1] came to 6.782%.

As usually defined, the IC50 is the concentration that inhibits the measured activity by half. Regarding `O=C(O)Cc1cc(O)c2c(c1O)C(=O)c1ccccc1C2=O` [cpi0136.0011], in assay [1], the Ki was 1.13 µM, the IC50 was 7.13 µM and the “Percent Activity” value is 2.42%.

Consider `O=C1C(Br)=C(Br)C(=O)c2c(O)c(Br)c(Br)c(O)c21` [cpi0140], for which, in assay [1], the Ki was 0.503 µM and the IC50 was 3.17 µM.

Regarding `O=C1C(Cl)=C(Cl)C(=O)c2ccccc21` [cpi0128], in assay [1], the Ki was 1.05 µM, the IC50 worked out at 6.62 µM and the “Percent Activity” value came out at 1.67%.

For the molecule `CN(C)c1cc(Nc2ccccc2)c2c3c(onc13)-c1ccccc1C2=O` [cpi0156.0052], the “Percent Activity” value in assay [1] is recorded as 31.97%.

Regarding `O=C1c2ccccc2C(=O)c2c1cc(S(=O)(=O)O)c(O)c2O` [cpi0136.0005], in assay [1], the Ki is 1.41 µM, the IC50 turned out to be 8.9 µM and the “Percent Activity” value is recorded as −2.336%.

As to `CC(=O)OCCNc1cc(Br)c2noc3c2c1C(=O)c1ccccc1-3` [cpi0156.0034], in assay [1], the “Percent Activity” value is −0.6303%.

As for `COc1ccc2c(c1OC)C(=O)OC2CC(=O)c1ccc(O)cc1O` (stereo not shown) [cpi0156.D1], in assay [1], the “Percent Activity” value is 24.72%.

`O=C1c2ccccc2C(=O)c2c(O)ccc(O)c21` [cpi0130]: the “Percent Activity” value in assay [1] is listed as 45.72%.

For the molecule `O=C1C=CC(=NNc2cc([N+](=O)[O-])cc([N+](=O)[O-])c2)c2cccc(O)c21` [cpi0136.0008], in assay [1], the Ki is 0.557 µM, the IC50 was found to be 3.51 µM and the “Percent Activity” value is recorded as −0.715%.

For `Nc1ccc(O)c2c1C(=O)c1ccccc1C2=O` [cpi0136.0007], in assay [1], the Ki was 1.77 µM, the IC50 amounted to 11.2 µM and the “Percent Activity” value is reported as −0.8437%.

`O=C1C=CC(=O)c2ccccc21` [cpi0126]: in assay [1], the Ki is 0.642 µM, the concentration for half-maximal inhibition (IC50) is 4.04 µM and the “Percent Activity” value is recorded as −0.30%. In assay [2], this molecule yielded a Ki of 515 µM.

As for `O=C1C(c2ccc(O)c(O)c2)=C(O)C(=O)c2c(O)cc(O)cc21` [cpi0136.0010], in assay [1], the Ki is 9.76 µM, the IC50 amounted to 61.5 µM and the “Percent Activity” value is given as 1.452%.

As for `O=C(O)c1c(O)c2c(c(O)c1Cl)C(=O)c1ccccc1C2=O` [cpi0136.0001], in assay [1], the Ki was 0.807 µM, the IC50 was found to be 5.09 µM and the “Percent Activity” value is recorded as −8.938%.

In the case of `NC(=O)NN=C1C=CC(=O)c2c(O)cccc21` [cpi0136.0004], in assay [1], the Ki is 0.0682 µM, the IC50 was found to be 0.43 µM and the “Percent Activity” value is reported as −3.391%.

For the molecule `O=C(NN=Cc1ccccc1)C12CC3CC(C1)CC(C(=O)NN=Cc1ccccc1)(C3)C2` [cpi0157.B2], in assay [1], the Ki is 52.8 µM and the “Percent Activity” value was found to be 50.76%.

Regarding `N#CC1=C(N)NC(SCc2ccccc2)=C(C#N)C12CCCC2` [cpi0157.F10], in assay [1], the Ki is 14.5 µM, the IC50 worked out at 91 µM and the “Percent Activity” value was 19.48%.

With `COc1ccc2noc3c2c1C(=O)c1ccccc1-3` [cpi0156.0054], the “Percent Activity” value in assay [1] was −3.264%.

Consider `O=C(O)C1Cc2c([nH]c3ccccc23)C(c2ccncc2)N1` (stereo not shown) [cpi0190], for which, in assay [1], the Ki was 0.0054 µM and the IC50 came to 0.03 µM.

Regarding `CC(=O)N(Cc1ccccc1)C1=C(Cl)C(=O)c2ccccc2C1=O` [cpi0156.0046], the “Percent Activity” value in assay [1] is −1.772%.

As to `CC(C)=CCC(O)C1CC(=O)c2c(O)ccc(O)c2C1=O` (mixture of isomers) [cpi0138.0002], the “Percent Activity” value in assay [1] is recorded as 30.37%.

Regarding `O=C1c2ccccc2-c2onc3c(N4CCCCC4)cc(Nc4ccccc4)c1c23` [cpi0156.0048], the “Percent Activity” value in assay [1] is 18.82%.

With `O=C1c2ccccc2-c2onc3ccc(Oc4c(F)c(F)c(F)c(F)c4F)c1c23` [cpi0156.0042], in assay [1], the “Percent Activity” value turned out to be 11.08%.

As to `Cc1cc(C(=O)NN)c2cc(Br)ccc2n1` [cpi0157.C3], in assay [1], the Ki was 131 µM, the IC50 worked out at 825 µM and the “Percent Activity” value came to 36.41%.

For `N#CC1=C(N)SC(N)=C(C#N)C1c1cccc(F)c1` [cpi0157.F9], in assay [1], the Ki was 39.9 µM, the IC50 came to 251 µM and the “Percent Activity” value worked out at 31.50%.

Consider `CC1=CC(=O)c2ccccc2C1=O` [cpi0127], for which, in assay [1], the Ki was 0.694 µM, the IC50 came out at 4.37 µM and the “Percent Activity” value is given as 1.32%. Moreover, in assay [2], the Ki came out at 242 µM.

Take `COc1cc(NC2OC(CO)C(O)C(O)C2O)ccc1C` (stereo not shown) [cpi0159.C3]: the “Percent Activity” value in assay [1] is on record as 33.47%.

With `O=C1c2ccccc2-c2onc3ccc(Cl)c1c23` [cpi0156.0056], the “Percent Activity” value in assay [1] worked out at 1.882%.

Turning to `O=C1C(Cl)=C(N2CCOCC2)C(=O)c2ccccc21` [cpi0156.0044], in assay [1], the “Percent Activity” value is recorded as −1.376%.

Turning to `O=C1C(Br)=CC(=O)c2c(O)cccc21` [cpi0141], the Ki in assay [1] is 4.91 µM; in assay [2], 73 µM. In assay [1], the IC50 was 30.9 µM.

Regarding `Cc1cccc(Oc2ccc3noc4c3c2C(=O)c2ccccc2-4)c1` [cpi0156.0055], the “Percent Activity” value in assay [1] is −1.448%.

For `Cc1ccc2[nH]c3c(cc(O)c4c(=O)c5ccccc5c(=O)c43)oc2c1` [cpi0136.0017], in assay [1], the Ki was 16.7 µM, the IC50 came out at 106 µM and the “Percent Activity” value was 24.8%.

For `O=C1c2ccccc2-c2onc3c(N4CCN(c5ccccc5)CC4)ccc1c23` [cpi0156.0047], the “Percent Activity” value in assay [1] is given as 28.63%.

For the molecule `O=C1C=CC(=NNc2ccc([N+](=O)[O-])cc2[N+](=O)[O-])c2cccc(O)c21` [cpi0136.0020], in assay [1], the Ki is 54.2 µM, the IC50 stood at 342 µM and the “Percent Activity” value turned out to be 36.98%.

As to `O=C1C=CC(=O)c2c(O)cccc21` [cpi0136.0002], in assay [1], the Ki is 0.0026 µM, the IC50 worked out at 0.02 µM and the “Percent Activity” value is −6.091%.

With `O=C(NC1CCCCC1)c1ccc2c3c(onc13)-c1ccccc1C2=O` [cpi0156.0045], the “Percent Activity” value in assay [1] is reported as 3.338%.

Consider `O=C1c2ccccc2C(=O)c2c(O)c(O)cc(O)c21` [cpi0136.0006], for which, in assay [1], the Ki is 0.762 µM, the IC50 is 4.8 µM and the “Percent Activity” value is listed as −2.295%.

With `O=C(COc1cc(O)c2c(=O)cc(-c3ccccc3)oc2c1)OCc1ccccc1` [cpi0136.0025], in assay [1], the Ki was 40.5 µM, the IC50 is 255 µM and the “Percent Activity” value was 54.1256%.

As for `O=C1C(Br)=C(Br)C(=O)c2c1ccc(Br)c2O` [cpi0139], in assay [1], the Ki is 69.8 µM and the IC50 was determined as 440 µM. In assay [2], this molecule displayed a Ki of 154 µM.

Take `COc1c(C)c([N+](=O)[O-])c(O)c2c1C(=O)c1ccccc1C2=O` [cpi0136.0024]: in assay [1], the Ki was 3.05 µM, the IC50 was determined as 19.2 µM and the “Percent Activity” value is 51.3817%.

Regarding `CC(C)=CCC(O)C1CC(=O)c2c(O)ccc(O)c2C1=O` (mixture of isomers) [cpi0138.0001], the “Percent Activity” value in assay [1] worked out at 22.68%.
